{"source": "patent US20110039721A1", "about": "“METHOD FOR PREDICTION ABOUT CARCINOGENICITY OF SUBSTANCE IN RODENT” (Chemicals Evaluation and Research Institute, priority 2007, published 2011)", "key": {"[1]": {"system": "liver", "settings": "in vivo; cited from earlier work"}, "[2]": {"system": "rodent", "settings": "in vivo; cited from earlier work"}, "[3]": {"system": "mRNA expressed from the genes (A) to (D) in rat liver", "test": "Behavior of genes (mRNA expression level, oligo-DNA microarray) in rat liver after 28-day oral administration", "assay_type": "in vivo", "settings": "rat liver, oral once daily 28 days", "method_in_brief": "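Liver mRNA levels were compared with matched vehicle groups, with a shift of at least 1.5-fold up or down deemed significant unless its direction disagreed with other carcinogens. Test substances were dosed orally by gavage daily for 28 days to 5-week-old male F344 rats, four per group.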"}, "[4]": {"settings": "(C), Unigene Rn.120914, defined direction +"}}, "data": [{"smiles": "Cc1ccc(N)cc1N", "note": "[TS004, 2,4-Diaminotoluene]", "values": [{"measurement": "Liver carcinogenicity", "setting": "[1]", "value": "Cr+"}, {"measurement": "Carcinogenicity", "setting": "[2]", "value": "C+"}, {"measurement": "Behavior of gene caused by administration of chemical substance, Gene No. 4846", "setting": "[3]; (A), Unigene Rn.144554, defined direction +", "value": "+"}, {"measurement": "Behavior of gene caused by administration of chemical substance, Gene No. 4218", "setting": "[3]; (A), Unigene Rn.167075, defined direction +, significant = 1.5 times or more or 1/1.5 or less of control", "value": "+"}, {"measurement": "Behavior of gene caused by administration of chemical substance, Gene No. 2026", "setting": "[3]; (A), Unigene Rn.167075, defined direction −", "value": "+"}, {"measurement": "Behavior of gene caused by administration of chemical substance, Gene No. 6182", "setting": "[3]; (A), Unigene Rn.5834, defined direction +", "value": "+"}, {"measurement": "Behavior of gene caused by administration of chemical substance, Gene No. 5600", "setting": "[3]; (A), Unigene Rn.9836, defined direction +", "value": "+"}, {"measurement": "Behavior of gene caused by administration of chemical substance, Gene No. 1494", "setting": "[3]; (B), Unigene Rn.1430, defined direction −", "value": "+"}, {"measurement": "Behavior of gene caused by administration of chemical substance, Gene No. 2045", "setting": "[3]; (B), Unigene Rn.19329, defined direction +", "value": "−"}, {"measurement": "Behavior of gene caused by administration of chemical substance, Gene No. 2203", "setting": "[3]; (B), Unigene Rn.21240, defined direction +", "value": "−"}, {"measurement": "Behavior of gene caused by administration of chemical substance, Gene No. 533", "setting": "[3]; (C), Unigene Rn.106184, defined direction +", "value": "−"}, {"measurement": "Behavior of gene caused by administration of chemical substance, Gene No. 725", "setting": "[3]; (C), Unigene Rn.108075, defined direction −", "value": "+"}, {"measurement": "Behavior of gene caused by administration of chemical substance, Gene No. 1163", "setting": "[3]; (C), Unigene Rn.11766, defined direction +", "value": "−"}, {"measurement": "Behavior of gene caused by administration of chemical substance, Gene No. 4973", "setting": "[3]; (C), Unigene Rn.118529, defined direction −", "value": "−"}, {"measurement": "Behavior of gene caused by administration of chemical substance, Gene No. 4095", "setting": "[3]; (C), Unigene Rn.119024, defined direction −", "value": "−"}, {"measurement": "Behavior of gene caused by administration of chemical substance, Gene No. 1334", "setting": "[3]; [4]", "value": "−"}, {"measurement": "Behavior of gene caused by administration of chemical substance, Gene No. 6620", "setting": "[3]; [4]", "value": "−"}, {"measurement": "Behavior of gene caused by administration of chemical substance, Gene No. 6303", "setting": "[3]; (C), Unigene Rn.123063, defined direction −", "value": "−"}, {"measurement": "Behavior of gene caused by administration of chemical substance, Gene No. 5878", "setting": "[3]; (C), Unigene Rn.143213, defined direction −", "value": "−"}, {"measurement": "Behavior of gene caused by administration of chemical substance, Gene No. 1131", "setting": "[3]; (C), Unigene Rn.144946, defined direction −", "value": "−"}, {"measurement": "Behavior of gene caused by administration of chemical substance, Gene No. 1562", "setting": "[3]; (C), Unigene Rn.14744, defined direction −", "value": "−"}, {"measurement": "Behavior of gene caused by administration of chemical substance, Gene No. 1741", "setting": "[3]; (C), Unigene Rn.1647, defined direction −", "value": "−"}, {"measurement": "Behavior of gene caused by administration of chemical substance, Gene No. 893", "setting": "[3]; (C), Unigene Rn.164817, defined direction +", "value": "−"}, {"measurement": "Behavior of gene caused by administration of chemical substance, Gene No. 6026", "setting": "[3]; (C), Unigene Rn.167685, defined direction −", "value": "−"}, {"measurement": "Behavior of gene caused by administration of chemical substance, Gene No. 154", "setting": "[3]; (C), Unigene Rn.185941, defined direction −", "value": "−"}, {"measurement": "Behavior of gene caused by administration of chemical substance, Gene No. 1993", "setting": "[3]; (C), Unigene Rn.18728, defined direction −", "value": "−"}, {"measurement": "Behavior of gene caused by administration of chemical substance, Gene No. 813", "setting": "[3]; (C), Unigene Rn.201760, defined direction +", "value": "−"}, {"measurement": "Behavior of gene caused by administration of chemical substance, Gene No. 2494", "setting": "[3]; (C), Unigene Rn.23969, defined direction +", "value": "−"}, {"measurement": "Behavior of gene caused by administration of chemical substance, Gene No. 2546", "setting": "[3]; (C), Unigene Rn.24561, defined direction −", "value": "−"}, {"measurement": "Behavior of gene caused by administration of chemical substance, Gene No. 3776", "setting": "[3]; (C), Unigene Rn.43232, defined direction −", "value": "−"}, {"measurement": "Behavior of gene caused by administration of chemical substance, Gene No. 3929", "setting": "[3]; (C), Unigene Rn.4620, defined direction +", "value": "−"}, {"measurement": "Behavior of gene caused by administration of chemical substance, Gene No. 1119", "setting": "[3]; (C), Unigene Rn.9757, defined direction +", "value": "−"}, {"measurement": "Behavior of gene caused by administration of chemical substance, Gene No. 6742", "setting": "[3]; (C), Unigene Rn.9779, defined direction +", "value": "−"}, {"measurement": "Behavior of gene caused by administration of chemical substance, Gene No. 5634", "setting": "[3]; (C), Unigene Rn.9862, defined direction −", "value": "−"}, {"measurement": "Behavior of gene caused by administration of chemical substance, Gene No. 5726", "setting": "[3]; (D), Unigene Rn.9939, defined direction −", "value": "−"}]}]}
